Data from ChEMBL document CHEMBL1201862, “PubChem BioAssay data set” (2004).
Activity calls are given as the source filed them.

Experiments:
[1] = SFLLRN-induced P-Selectin Platelet Surface Expression Measured in Cell-Based System Using Flow Cytometry - 2016-03_Inhibitor_Dose_DryPowder_Activity_Set3. [Related pubchem assays (depositor defined):AID1678]; type: functional
[2] = blockers of SFLLRN-triggered platelet ATP secretion – cell-based, human platelets, luminescence, dry powder, dose response (AID 493100); type: functional
[3] = Luminescence Cell-Based Dose Response Follow up to Identify Inhibitors of Platelet Dense Granule Release. [Related pubchem assays (depositor defined):AID1663, AID1678, AID1889, AID2519]; type: functional
[4] = blockers of HIV-1 envelope-mediated cell-cell fusion – cherry-pick, dose response (AID 652057); type: functional, cell-based
[5] = blockers of HIV-1 ZM109 envelope-driven cell-cell fusion – HeLa effector, CEM target cells, luciferase, cherry-pick, dose response (AID 652058); type: functional, cell-based;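 note: luciferase signal from HIV-1 Env mediated cell-cell fusion of effector and target cells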
[6] = off-target signal loss in HeLa-CEM21 co-culture – HeLa F-luc CTL cells, cherry-picked, counter-screen for HIV-1 Env fusion inhibitor project, dose response (AID 652040); type: functional, cell-based;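 note: potency for signal decrease marking cytotoxic or nonspecific inhibition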
[7] = HIV-1 AD8 envelope cell-cell fusion blockers – cherry-pick, dose response (AID 652062); type: functional, cell-based;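 note: luciferase signal from cell-cell fusion driven by HIV-1 clade B AD8 Env; potency is for inhibitors of fusion seen as a drop in luminescence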
[8] = tested on: HEK293; test: cells; settings: Homo sapiens
[9] = tested on: HEK293; test: cells; settings: Homo sapiens; remark: listed apart in the source
[10] = tested on: Streptococcus sp. 'group A'; test: Streptococcus pyogenes SK(-)GAS viability under kanamycin – luminescence, BacTiterGlo, confirmation, counter-screen for streptokinase expression inhibitor project, dose response (AID 1900); type: functional, organism-based
[11] = target: Luciferin 4-monooxygenase (Photinus pyralis, UniProt P08659); test: Counter Screen for Luciferase-based Assay Positives. [Related pubchem assays: 620, 618, 411 ]
Sequence of Luciferin 4-monooxygenase (P08659 whole entry): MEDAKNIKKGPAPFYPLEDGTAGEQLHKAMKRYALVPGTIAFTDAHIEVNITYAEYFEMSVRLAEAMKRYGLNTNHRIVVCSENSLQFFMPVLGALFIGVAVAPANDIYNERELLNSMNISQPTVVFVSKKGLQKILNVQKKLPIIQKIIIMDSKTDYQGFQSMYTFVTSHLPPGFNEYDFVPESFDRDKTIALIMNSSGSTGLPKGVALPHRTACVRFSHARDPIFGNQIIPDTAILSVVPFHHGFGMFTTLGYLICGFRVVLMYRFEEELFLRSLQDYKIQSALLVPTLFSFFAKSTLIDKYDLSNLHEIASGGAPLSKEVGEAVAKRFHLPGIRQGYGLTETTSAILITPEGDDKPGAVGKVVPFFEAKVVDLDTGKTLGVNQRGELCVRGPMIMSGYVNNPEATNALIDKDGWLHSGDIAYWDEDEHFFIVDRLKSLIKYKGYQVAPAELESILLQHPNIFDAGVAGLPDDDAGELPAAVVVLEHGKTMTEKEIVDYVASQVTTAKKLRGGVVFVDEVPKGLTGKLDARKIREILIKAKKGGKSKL

[12] = target: T1, Heat shock factor protein 1 (Mus musculus, UniProt P38532); test: decrease of HSF1-responsive luciferase luminescence – cell-based, NIH3T3, dose retest, confirmation (AID 2382); type: functional;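 note: NIH3T3 fibroblasts with HSF1-driven luciferase reporter stressed by proteasome inhibitor MG132; luminescence from HSF1-driven luciferase expression after 8 hours of MG132 stress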
T1 sequence (P38532 whole entry): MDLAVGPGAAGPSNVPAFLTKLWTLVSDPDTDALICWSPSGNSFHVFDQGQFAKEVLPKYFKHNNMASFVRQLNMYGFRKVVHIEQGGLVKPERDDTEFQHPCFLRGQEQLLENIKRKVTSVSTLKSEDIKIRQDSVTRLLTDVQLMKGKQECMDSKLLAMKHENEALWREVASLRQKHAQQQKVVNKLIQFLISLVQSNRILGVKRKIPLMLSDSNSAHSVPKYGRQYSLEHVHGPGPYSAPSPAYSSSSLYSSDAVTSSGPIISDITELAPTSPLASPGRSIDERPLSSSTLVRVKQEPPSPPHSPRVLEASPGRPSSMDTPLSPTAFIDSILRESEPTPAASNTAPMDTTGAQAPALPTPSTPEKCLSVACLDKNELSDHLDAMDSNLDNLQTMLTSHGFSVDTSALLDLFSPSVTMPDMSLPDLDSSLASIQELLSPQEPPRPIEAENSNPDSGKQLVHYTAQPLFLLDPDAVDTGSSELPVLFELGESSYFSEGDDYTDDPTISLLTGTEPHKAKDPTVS

[13] = target: T2, Streptokinase A (Streptococcus pyogenes serotype M1, UniProt P10520); test: viability-normalized secreted streptokinase activity reduction – plasminogen activation absorbance, OD405, dose response (AID 1914); type: functional, Streptococcus pyogenes M1 GAS;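 note: secreted streptokinase activity via plasminogen activation per viability signal from cell pellet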
T2 sequence (P10520 whole entry): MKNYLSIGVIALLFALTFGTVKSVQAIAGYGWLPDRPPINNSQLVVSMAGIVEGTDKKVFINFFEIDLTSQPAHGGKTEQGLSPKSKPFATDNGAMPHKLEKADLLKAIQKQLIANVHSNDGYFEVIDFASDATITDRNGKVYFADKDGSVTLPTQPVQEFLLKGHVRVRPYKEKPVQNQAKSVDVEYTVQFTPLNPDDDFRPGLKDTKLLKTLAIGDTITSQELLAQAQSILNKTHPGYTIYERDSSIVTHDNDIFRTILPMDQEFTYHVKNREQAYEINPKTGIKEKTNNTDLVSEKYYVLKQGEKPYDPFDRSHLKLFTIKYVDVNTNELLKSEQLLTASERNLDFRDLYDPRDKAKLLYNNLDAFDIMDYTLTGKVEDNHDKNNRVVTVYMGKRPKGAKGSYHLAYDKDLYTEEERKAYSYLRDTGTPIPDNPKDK

[14] = target: T3, Estrogen receptor (Homo sapiens, UniProt P03372);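 note: potency for inhibiting coactivator peptide recruitment to the receptor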
T3 sequence (P03372 whole entry): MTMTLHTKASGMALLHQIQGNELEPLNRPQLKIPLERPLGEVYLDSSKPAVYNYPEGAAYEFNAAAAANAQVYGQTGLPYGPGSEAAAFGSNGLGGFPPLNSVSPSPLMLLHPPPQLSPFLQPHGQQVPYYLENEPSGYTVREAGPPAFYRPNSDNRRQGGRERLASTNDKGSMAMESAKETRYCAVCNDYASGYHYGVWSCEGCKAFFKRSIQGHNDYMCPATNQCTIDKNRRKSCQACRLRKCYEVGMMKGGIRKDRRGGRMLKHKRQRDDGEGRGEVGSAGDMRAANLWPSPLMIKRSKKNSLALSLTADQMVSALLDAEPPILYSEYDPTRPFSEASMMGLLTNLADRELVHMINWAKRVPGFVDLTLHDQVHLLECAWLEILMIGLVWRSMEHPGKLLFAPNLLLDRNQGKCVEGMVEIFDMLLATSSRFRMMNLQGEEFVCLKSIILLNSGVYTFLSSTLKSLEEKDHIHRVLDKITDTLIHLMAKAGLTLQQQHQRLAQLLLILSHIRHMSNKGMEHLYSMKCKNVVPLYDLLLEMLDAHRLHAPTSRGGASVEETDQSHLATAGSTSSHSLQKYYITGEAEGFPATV

[15] = Trypanosoma cruzi growth suppression in host cells – NIH3T3 host cells, beta-gal luminescence, confirmation (AID 2044); type: functional, cell-based;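 note: intracellular parasites grown in NIH/3T3 mouse fibroblasts as host cells; luminescent beta-galactosidase reporter signal from transgenic T. cruzi replicating inside host cells; inhibitors lower the luminescence signal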
[16] = viability of PTEN-deleted HCT116 cells – cell-based, HCT116 PTEN knockout, dose response (AID 1047); type: functional;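 note: HCT116 colon tumor cells with PTEN knocked out; cells exposed to compound for 60 hours before readout; potency for loss of cell viability measured by luminescence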
[17] = tested on: HT-1080; test: HT1080 cell viability loss – fluorescence readout (AID 620); type: functional, cell-based; settings: Homo sapiens
[18] = NIH3T3 cell viability loss – ATP luminescence, mouse fibroblasts, counter-screen, dose response (AID 2010); type: functional, cell-based;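 note: cells exposed to compound for about 90 hours before reading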
[19] = viability of HCT116 lacking mutant beta-catenin – cell-based, human colon tumor, dose response (AID 1045); type: functional;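 note: HCT116 colon tumor cells with beta catenin knocked out; cells exposed to compound for 60 hours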
[20] = tested on: Streptococcus; test: GAS UMAA2166 growth inhibition – luminescence, BacTiterGlo, counter-screen for streptokinase expression inhibitor project, dose response (AID 1915); type: functional, organism-based;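 note: potency for reduction of bacterial viability or growth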
[21] = THP-1 cell cytotoxicity, dose response, cytotoxicity control for non-replicating M. tuberculosis project (AID 489025); type: functional
[22] = Vero E6 cell cytotoxicity, dose response, cytotoxicity control for non-replicating M. tuberculosis project, secondary assay (AID 492998); type: functional, VeroE6; settings: Vero C1008
[23] = HEK-293T viability loss after treatment – luminescence, T-cell screen hits, cytotoxicity control for TCR NF-kB inhibitor project, dose response (AID 489026); type: functional, cell-based;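 note: cells exposed to compound about 14 hours before the viability readout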
[24] = target: T4, Microphthalmia-associated transcription factor (Homo sapiens, UniProt O75030); test: reducers of TRPM1 reporter luminescence, concentration series – cell-based, SK-MEL-5, cherry-picked, set 3, MITF inhibitor project, dose response (AID 493073); type: functional;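 note: SK-MEL-5 melanoma cells with luciferase driven by the MITF target TRPM1 promoter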
T4 sequence (O75030 whole entry): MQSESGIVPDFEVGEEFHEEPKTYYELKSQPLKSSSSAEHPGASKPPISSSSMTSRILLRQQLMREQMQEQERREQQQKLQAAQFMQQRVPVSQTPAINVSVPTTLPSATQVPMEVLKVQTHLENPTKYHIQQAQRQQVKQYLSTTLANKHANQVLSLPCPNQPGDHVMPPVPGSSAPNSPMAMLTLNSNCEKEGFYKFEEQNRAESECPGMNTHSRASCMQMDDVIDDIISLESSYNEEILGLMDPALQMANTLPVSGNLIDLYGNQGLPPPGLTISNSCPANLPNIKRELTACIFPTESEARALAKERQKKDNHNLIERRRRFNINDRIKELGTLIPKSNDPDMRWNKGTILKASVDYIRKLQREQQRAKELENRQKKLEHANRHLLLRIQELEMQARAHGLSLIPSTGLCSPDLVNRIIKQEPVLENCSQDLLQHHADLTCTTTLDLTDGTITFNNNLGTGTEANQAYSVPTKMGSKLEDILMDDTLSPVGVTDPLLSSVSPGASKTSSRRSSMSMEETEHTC

[25] = cells; type: functional
[26] = target: Cytochrome P450 2C19 (Homo sapiens, UniProt P33261); test: Cytochrome panel assay with activity outcomes. Panel member name: p450-cyp2c19 Compounds with AC50 equal or less than 10 uM are considered active; type: functional; settings: read-out: AC50
Sequence of Cytochrome P450 2C19 (P33261 whole entry): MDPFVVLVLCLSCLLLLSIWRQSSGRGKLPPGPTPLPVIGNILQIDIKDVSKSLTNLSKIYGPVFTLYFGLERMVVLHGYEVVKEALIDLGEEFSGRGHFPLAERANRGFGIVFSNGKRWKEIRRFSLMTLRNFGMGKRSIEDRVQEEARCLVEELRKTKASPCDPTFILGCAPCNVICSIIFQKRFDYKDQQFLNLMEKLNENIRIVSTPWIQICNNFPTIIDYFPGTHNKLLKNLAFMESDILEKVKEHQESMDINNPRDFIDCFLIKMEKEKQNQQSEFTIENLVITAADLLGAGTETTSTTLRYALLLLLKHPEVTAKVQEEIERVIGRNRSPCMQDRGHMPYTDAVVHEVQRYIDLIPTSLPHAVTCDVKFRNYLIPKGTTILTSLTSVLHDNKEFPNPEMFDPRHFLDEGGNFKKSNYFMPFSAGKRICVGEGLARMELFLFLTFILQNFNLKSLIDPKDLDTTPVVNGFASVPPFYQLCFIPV

[27] = tested on: H4; test: inhibitors of control reporter signal in H4 cells – cell-based, plate reader, dry powder samples, counter-screen for prion reporter project, dose response (AID 540255); type: functional; settings: Homo sapiens
[28] = tested on: H4; test: Amyloid Precursor 5' UTR neuroblastoma cell reporter line Measured in Cell-Based System Using Plate Reader - 2078-04_Inhibitor_Dose_DryPowder_Activity. [Related pubchem assays (depositor defined):AID488894]; type: functional; settings: Homo sapiens
[29] = tested on: H4; test: Inhibitors of Prion Protein 5' UTR mRNA Measured in Cell-Based System Using Plate Reader - 2078-01_Inhibitor_Dose_DryPowder_Activity. [Related pubchem assays (depositor defined):AID488894]; type: functional; settings: Homo sapiens
[30] = target: Cytochrome P450 2D6 (Homo sapiens, UniProt P10635);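 note: CYP2D6 member of a cytochrome P450 panel assay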
Sequence of Cytochrome P450 2D6 (P10635 whole entry): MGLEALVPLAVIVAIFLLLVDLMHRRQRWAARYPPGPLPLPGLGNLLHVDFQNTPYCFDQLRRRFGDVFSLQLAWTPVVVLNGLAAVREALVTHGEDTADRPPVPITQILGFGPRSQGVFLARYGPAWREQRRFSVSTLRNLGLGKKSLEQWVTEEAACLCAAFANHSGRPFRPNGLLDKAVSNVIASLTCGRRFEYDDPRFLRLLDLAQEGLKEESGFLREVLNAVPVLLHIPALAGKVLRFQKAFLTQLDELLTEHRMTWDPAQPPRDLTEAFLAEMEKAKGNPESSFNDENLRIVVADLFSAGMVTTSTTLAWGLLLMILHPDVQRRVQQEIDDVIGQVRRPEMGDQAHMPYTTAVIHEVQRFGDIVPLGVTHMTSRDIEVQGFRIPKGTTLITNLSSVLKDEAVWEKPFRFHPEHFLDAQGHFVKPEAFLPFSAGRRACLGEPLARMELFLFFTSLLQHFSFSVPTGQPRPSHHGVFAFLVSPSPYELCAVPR

## COc1ccc(C(=O)Nc2cccc(NC(C)=O)c2)cc1
[1]
  AC50: 3.53 µM (active)
[2]
  AC50: 12.8 µM (active)
[3]
  EC50: 3.96 µM (active)

## COc1ccc(Cl)cc1CC1(C)C(=O)Nc2ccc(S(=O)(=O)NC3CCCCC3)cc21 (stereo not given)
[4]
  AC50: 0.749 µM (active)
[5]
  AC50: 0.768 µM (active)
[6]
  AC50: 1.07 µM (active)
[7]
  AC50: 3.04 µM (active)
[8]
  EC50: > 59.6 µM (inactive)
[9]
  EC50: > 59.6 µM (inactive)

## Cc1ccc(C(=O)N/N=C/c2ccc([N+](=O)[O-])s2)cc1
[10]
  EC50: 5.16 µM (active)
[11]
  EC50: 3.5 µM (active)
[12]
  EC50: 0.324 µM (active)
[13]
  EC50: > 150 µM (not active)
[14]
  IC50: 21.1 µM (active)
[15]
  EC50: 0.72 µM (active)
[16]
  EC50: 3.05 µM (active)
[17]
  EC50: > 50 µM (not active)
[18]
  EC50: > 30 µM (not active)
[19]
  EC50: 3.5 µM (active)
[20]
  EC50: 14.3 µM (active)
[21]
  CC50: 12.2 µM (active)
[22]
  CC50: 11.5 µM (active)
[23]
  IC50: > 80 µM (inactive)
[24]
  AC50: 2.2 µM (active)
[25]
  IC50: 5.2 µM (active)
[26]
  AC50: 39.8 µM (inconclusive)
[27]
  AC50: 3.18 µM (active)
[28]
  AC50: 3 µM (active)
[29]
  AC50: 0.875 µM (active)
[30]
  AC50: 15.8 µM (inconclusive)
